ChEMBL document CHEMBL5104122, “Synthesis and application of phosphorylated saccharides in researching carbohydrate-based drugs” (Bioorg Med Chem, 2022)

Biological target: Galectin-7 (Homo sapiens, UniProt P47929)
Experiment: Binding affinity to human Gal-7 assessed as dissociation constant by fluorescence polarization assay

Galectin-7, sequence (P47929 whole entry): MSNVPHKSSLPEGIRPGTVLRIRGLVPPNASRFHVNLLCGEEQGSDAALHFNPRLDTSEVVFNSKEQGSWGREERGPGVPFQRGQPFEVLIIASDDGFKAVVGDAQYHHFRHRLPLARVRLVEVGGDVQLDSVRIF

Row | Kd [µM] | SMILES
1 | 450 | CS[C@@H]1O[C@H](CO)[C@H](O)[C@H](NC(=O)c2ccc(C)cc2)[C@H]1OP(=O)(O)OCc1ccccc1
2 | 240 | COP(=O)(O)O[C@@H]1[C@@H](NC(=O)c2ccc(C)cc2)[C@@H](O)[C@@H](CO)O[C@H]1SC
